Assay results: ChEMBL document CHEMBL1629541, “Synthesis and structure-activity relationships of aza- and diazabiphenyl analogues of the antitubercular drug (6S)-2-nitro-6-{[4-(trifluoromethoxy)benzyl]oxy}-6,7-dihydro-5H-imidazo[2,1-b][1,3]oxazine (PA-824)” (J Med Chem, 2010)
≈ marks a conversion by molar mass, not a printed value.

Tests used:
[1] = system: Mycobacterium tuberculosis; assay: microbe, parasite or virus in culture; conditions: H37Rv
[2] = system: Mycobacterium tuberculosis; assay: microbe, parasite or virus in culture; conditions: H37Rv; remark: listed apart in the source
Description: Antitubercular activity against Mycobacterium tuberculosis H37Rv by LORA method

physchem [3] = conditions: water, pH 1
Description: Solubility of the compound in water at pH 1.0 by HPLC

physchem [4] = conditions: water, pH 7
Description: Solubility of the compound in water at pH 7.0 by HPLC

in vitro [5] = conditions: human, liver microsomes
Description: Metabolic stability in human liver microsomes assessed as compound remaining after 1 hr

in vitro [6] = conditions: CD1, mouse, liver microsomes
Description: Metabolic stability in CD1 mouse liver microsomes assessed as compound remaining after 1 hr

[7] = Half life in Sprague-Dawley rat at 5 mg/kg, iv administered as single dose; assay type: ADME, organism-based; parameters: dose 5 mg/kg, route intravenous; conditions: in vivo
[8] = Cmax in CD1 mouse lung at 40 mg/kg, po administered as single dose; assay type: ADME, organism-based; parameters: dose 40 mg/kg, route oral
[9] = Cmax in Sprague-Dawley rat at 20 mg/kg, po administered as single dose; assay type: ADME, organism-based; parameters: dose 20 mg/kg, route oral; conditions: in vivo
[10] = AUClast in Sprague-Dawley rat at 5 mg/kg, iv administered as single dose; assay type: ADME, organism-based; parameters: time 0 - last, dose 5 mg/kg, route intravenous; conditions: plasma
[11] = AUC (0-infinity) in CD1 mouse lung at 40 mg/kg, po administered as single dose; assay type: ADME, organism-based; parameters: time infinity, dose 40 mg/kg, route oral
[12] = Half life in CD1 mouse plasma at 40 mg/kg, po administered as single dose; assay type: ADME, organism-based; parameters: dose 40 mg/kg, route oral
[13] = AUClast in Sprague-Dawley rat at 20 mg/kg, po administered as single dose; assay type: ADME, organism-based; parameters: time 0 - last, dose 20 mg/kg, route oral; conditions: plasma
[14] = Tmax in Sprague-Dawley rat at 20 mg/kg, po administered as single dose; assay type: ADME, organism-based; parameters: dose 20 mg/kg, route oral; conditions: in vivo
[15] = Tmax in Sprague-Dawley rat at 5 mg/kg, iv administered as single dose; assay type: ADME, organism-based; parameters: dose 5 mg/kg, route intravenous; conditions: in vivo
[16] = AUC (0-infinity) in CD1 mouse plasma at 40 mg/kg, po administered as single dose; assay type: ADME, organism-based; parameters: time infinity, dose 40 mg/kg, route oral
[17] = Cmax in Sprague-Dawley rat at 5 mg/kg, iv administered as single dose; assay type: ADME, organism-based; parameters: dose 5 mg/kg, route intravenous; conditions: in vivo
[18] = Oral bioavailability in Sprague-Dawley rat at 20 mg/kg, po administered as single dose; assay type: ADME, organism-based; conditions: in vivo
[19] = Half life in CD1 mouse lung at 40 mg/kg, po administered as single dose; assay type: ADME, organism-based; parameters: dose 40 mg/kg, route oral
[20] = Cmax in CD1 mouse plasma at 40 mg/kg, po administered as single dose; assay type: ADME, organism-based; parameters: dose 40 mg/kg, route oral
[21] = Ratio of AUC (0-infinity) in lung to AUC (0-infinity) in plasma of CD1 mouse at 40 mg/kg, po administered as single dose; assay type: ADME, organism-based; parameters: dose 40 mg/kg, route oral
[22] = Thermodynamic solubility in aqueous buffer at pH 1 at 20 degC by HPLC; assay type: physicochemical; conditions: aqueous buffer
[23] = Thermodynamic solubility in aqueous buffer at pH 7.4 at 20 degC by HPLC; assay type: physicochemical
[24] = Cmax in Sprague-Dawley rat at 1 mg/kg, iv administered as single dose; assay type: ADME, organism-based; parameters: dose 1 mg/kg, route intravenous; conditions: in vivo
[25] = Half life in Sprague-Dawley rat at 1 mg/kg, iv administered as single dose; assay type: ADME, organism-based; parameters: dose 1 mg/kg, route intravenous; conditions: in vivo
[26] = AUClast in Sprague-Dawley rat at 1 mg/kg, iv administered as single dose; assay type: ADME, organism-based; parameters: time 0 - last, dose 1 mg/kg, route intravenous; conditions: plasma
[27] = Tmax in Sprague-Dawley rat at 1 mg/kg, iv administered as single dose; assay type: ADME, organism-based; parameters: dose 1 mg/kg, route intravenous; conditions: in vivo

Structure (SMILES)	MIC [1]	MIC [2]	solubility (physchem [3])	solubility (physchem [4])	remaining at 1 h (in vitro [5])	remaining at 1 h (in vitro [6])	Cmax [8]	Cmax [9]	AUC(0-inf) [11]	half-life [12]	AUC(0-t) [13]	Tmax [14]	AUC(0-inf) [16]	bioavailability [18]	half-life [19]	Cmax [20]	solubility thermodynamic [22]	solubility thermodynamic [23]	also measured
O=[N+]([O-])c1cn2c(n1)OC[C@@H](OCc1cncc(-c3ccc(F)cc3)c1)C2	0.31 µM (≈ 0.115 µg/mL)	7.7 µM (≈ 2.85 µg/mL)	41000 µg/mL (≈ 111000 µM)	45 µg/mL (≈ 122 µM)	71%	39%													
O=[N+]([O-])c1cn2c(n1)OC[C@@H](OCc1ccc(-c3ccc(OC(F)(F)F)cc3)cn1)C2	0.065 µM (≈ 0.0284 µg/mL)	3.7 µM (≈ 1.61 µg/mL)					35000 ng/mL	16000 ng/mL	427 µg·h/mL	5.4 h	66.7 µg·h/mL	6 h	418 µg·h/mL	46%	8.2 h	26000 ng/mL			half-life [7]: > 6 h; AUC(0-t) [10]: 35.9 µg·h/mL; Tmax [15]: 0.083 h; Cmax [17]: 8700 ng/mL
O=[N+]([O-])c1cn2c(n1)OC[C@@H](OCc1ccc(-c3ccc(OC(F)(F)F)c(F)c3)cn1)C2	0.05 µM (≈ 0.0227 µg/mL)	1.3 µM (≈ 0.591 µg/mL)	334 µg/mL (≈ 735 µM)	30 µg/mL (≈ 66 µM)	97%	86%	9100 ng/mL		155 µg·h/mL	8.4 h			137 µg·h/mL		7.9 h	7600 ng/mL	67 µg/mL (≈ 147 µM)	1.5 µg/mL (≈ 3.3 µM)	Kp [21]: 1.1
O=[N+]([O-])c1cn2c(n1)OC[C@@H](OCc1ccc(-c3ccc(F)cc3)nc1)C2	0.06 µM (≈ 0.0222 µg/mL)	2.9 µM (≈ 1.07 µg/mL)	1000 µg/mL (≈ 2700 µM)		88%	80%	11000 ng/mL		136 µg·h/mL	2.7 h			61 µg·h/mL		2.8 h	5300 ng/mL	> 93 µg/mL	5.9 µg/mL (≈ 15.9 µM)	
O=[N+]([O-])c1cn2c(n1)OC[C@@H](OCc1ccc(-c3ccc(OC(F)(F)F)c(Cl)c3)nc1)C2	0.017 µM (≈ 0.008 µg/mL)	1 µM (≈ 0.471 µg/mL)	39 µg/mL (≈ 82.8 µM)		87%	77%	10000 ng/mL		284 µg·h/mL	22 h			88 µg·h/mL		14 h	2900 ng/mL	17 µg/mL (≈ 36.1 µM)	0.19 µg/mL (≈ 0.404 µM)	
O=[N+]([O-])c1cn2c(n1)OC[C@@H](OCc1ccc(-c3ccc(OC(F)(F)F)c(F)c3)nc1)C2	0.025 µM (≈ 0.0114 µg/mL)	0.93 µM (≈ 0.423 µg/mL)	71 µg/mL (≈ 156 µM)	3 µg/mL (≈ 6.6 µM)	100%	90%	12000 ng/mL	7200 ng/mL	251 µg·h/mL	14 h	129 µg·h/mL	6 h	175 µg·h/mL	93%	12 h	7000 ng/mL	34 µg/mL (≈ 74.8 µM)	0.32 µg/mL (≈ 0.704 µM)	Cmax [24]: 530 ng/mL; half-life [25]: 33 h; Kp [21]: 1.4; AUC(0-t) [26]: 6.97 µg·h/mL; Tmax [27]: 4.98 min
O=[N+]([O-])c1cn2c(n1)OC[C@@H](OCc1ccc(-c3ccc(OC(F)(F)F)cc3)nn1)C2	0.075 µM (≈ 0.0328 µg/mL)	1.7 µM (≈ 0.743 µg/mL)	31 µg/mL (≈ 70.9 µM)		94%	92%	7000 ng/mL		94 µg·h/mL	2.9 h			52 µg·h/mL		3.4 h	3600 ng/mL	10 µg/mL (≈ 22.9 µM)	3 µg/mL (≈ 6.86 µM)	
O=[N+]([O-])c1cn2c(n1)OC[C@@H](OCc1cnc(-c3ccc(OC(F)(F)F)cc3)cn1)C2	0.023 µM (≈ 0.0101 µg/mL)	1 µM (≈ 0.437 µg/mL)	2.8 µg/mL (≈ 6.4 µM)		98%		23000 ng/mL	7000 ng/mL	> 324 µg·h/mL	7.2 h	29.4 µg·h/mL	5 h	152 µg·h/mL	45%	> 8 h	9600 ng/mL	0.44 µg/mL (≈ 1.01 µM)	0.44 µg/mL (≈ 1.01 µM)	half-life [7]: 24 h; AUC(0-t) [10]: 16.3 µg·h/mL; Tmax [15]: 0.167 h; Cmax [17]: 3900 ng/mL
